Assay results as given in patent US8105797B2, “Diagnostic test” (priority 2004, dated 2012).

Tested on: PBMCs from healthy unexposed BCG-vaccinated donors
Type: cell-based, human

Row | Sequence | response of BCG-vaccinated unexposed donor to individual peptide
1 | LTATNFFGINTIPIA [119-133] | responded
2 | YFIRMWNQAALAMEV (listed as Mycobacterium tuberculosis) [139-153, from pool 2 of Rv3873] | responded
3 | AAKLAGLVFPQPPAP (listed as Mycobacterium tuberculosis) [16-30, from Rv3878] | responded
4 | DTFYDRAQEYSQVLQ (listed as Mycobacterium tuberculosis) [26-40, from Rv3879c, pool 1] | responded
5 | LDPGASQSTTNPIFG (listed as Mycobacterium tuberculosis) [peptide 174-188, from Rv3873] | responded
6 | ESLVSDGLPGVKAAL (listed as Mycobacterium tuberculosis) [61-75, from Rv3878] | responded
